According to patent US5585358A, “Derivatives of valproic acid amides and 2-valproenoic acid amides, method of making and use thereof as anticonvulsant agents” (Yissum Research Development Corporation of the Hebrew …, priority 1993, dated 1996):
Like-named read-outs stand apart in the source and are kept apart here.

Experiments:
[1] = type: in vivo, rat; parameters: key to Latency, Session I / Latency, Session II: latency in seconds for avoiding a potential shock
Method: Test was performed on days 16-17 (session 1) and 22-23 (session 2) after initiation of drug treatment. Better performance is indicated by an increase in avoidance score, a decrease in latency time, and an increase in the number of crossings.
(§1) The studies test for the level of motivation, association and short and long-term memory. The specific studies were the effect of compound 1 on the performance of rats in the locomotor test and passive and active response tests.
The conditioned avoidance response (active avoidance test) of rats was determined in a Hugo-Basile automatic conditioning apparatus, which consists of a shuttle box with two separate floor grids. In this apparatus the rats are conditioned to jump from one side of the box to the other side. The conditioning is a 10 sec stimulus consisting of a light and electric buzzer. […] The session is then repeated with the same rats 7 days later. Experiments were carried out on days 16-17 and 22-23 from the start of drug treatment, and each rat received 60 trials with a 30 sec interval between each trial.
The following parameters were recorded: a) the number of potential shocks successfully avoided; b) the latency response in seconds for avoiding a potential shock; and c) the total number of crossings made throughout the trials. In this test, a better performance is indicated by an increase in the avoidance of an electric shock, a decrease in the latency time to jump to the other side of the cage, and an increase in the number of times the rats crossed to the other side of the cage.
Scores in the active avoidance test (conditioned avoidance response) of
rats treated with compound 1 and related drugs. The tests in the first
session were performed on days 16-17 from initiation of drug
administration. Those in session II were performed on days 22-23, that is
7 days following session I. Number of rats in a group are given in […]

[2] = rat p.o.; literature values; cited from earlier work
[3] = rat p.o.; literature values; N.E. = not effective; cited from earlier work
[4] = mice i.p., literature values, N.E. = not effective, cited from earlier work
[5] = rat p.o.; literature values; cited from earlier work; remark: listed apart in the source
[6] = maximal electroshock (MES) test, rat p.o.; type: in vivo; conditions: for ED100: Rattus norvegicus, rats, read-out: minimum dose giving full protection against seizures in the MES test
From the text: (§2) The first model, the subcutaneous pentylenetetrazol (s.c. Met) seizure threshold test, is a standard screening procedure to show efficacy for agents against absence seizures. The second model, the maximal electroshock (MES) test, is used to show efficacy for antiepileptic agents against generalized seizures. In these studies, convulsions were inhibited or prevented in mice after intraperitoneal (i.p.) administration and/or in rats after oral (p.o.) administration of the compounds.
(§3) N-(2-Propylpentanoyl)glycinamide (hereinafter compound 1) was further tested in two additional models. The third model, electrical kindling of rats, has been known to show efficacy of antiepileptic agents against complex partial seizures that evolve into generalized motor seizures. In these tests, rats were electrically stimulated via corneal electrodes twice daily for approximately 5 days and then once daily for an additional 10 days. Once the seizure criteria, as described by R. J. Racine, et al., Electroenceph. […] In addition, compound 1 was also tested in the subcutaneous bicuculline model (s.c. Bic).
and rats by subcutaneous administration of pentylenetetrazol (s.c. Met
test) or by electrical stimulation (MES test). N.E. = not effective.

[7] = maximal electroshock (MES) test, mice i.p.; type: in vivo; conditions: for activity in MES model: doses up to 300 mg/kg
From the text: Convulsions were induced in mice

[8] = subcutaneous pentylenetetrazol (s.c. Met) seizure threshold test, mice i.p.; type: in vivo; conditions: for activity in s.c. Met model: doses up to 300 mg/kg
From the text: Convulsions were induced in mice

[9] = electrical kindling model, rats p.o.; type: in vivo; conditions: po; rat p.o.
From the text: as §3

[10] = subcutaneous bicuculline model (s.c. Bic), mice; type: in vivo
From the text: as §3

[11] = neurotoxicity in rats (positional sense test and gait and stance test); type: in vivo; conditions: rat p.o.
Method: (§4) Neurotoxicity of the claimed agents was also assessed in mice (i.p. adminstration) by the rotorod ataxia test and also in some cases in rats (p.o. administration) by the positional sense test and gait and stance test.

[12] = type: in vivo, rat
Method: as §1
In the locomotor test, motor activity was recorded 8 to 9 days after the beginning of drug treatment. Locomotion scores were recorded in cages (25×26cm) having a grid of infra-red beams at 4 cm intervals. Two categories of movements were recorded: small movements (those originating in stationary activities such as grooming and scratching), and big movements (those resulting in ambulation and recorded as the simultaneous crossing of more than two beams). Since rats are nocturnal animals, recordings were usually made between 18:00 PM-6:00 AM.
Activity scores of drugtreated rats, measured in activity cages on days
8-9 after initiation of daily oral dosing with the given drug. Figures ar
number of crossings ± SEM. Number of rats per group are given in […]

[13] = type: in vivo, rat; remark: listed apart in the source
Method: Tests were performed on day 10 after drug treatment. Latency, in seconds, represents response time to entry into dark compartment. Maximum latency is 300 sec. Longer latencies represent improved performance. Bars represent mean standard error (SEM).
as §1
To measure passive avoidance responses, tests were performed on days 10, 12, 14, 20, and 26 after initiation of drug treatment. The apparatus consisted of a lit chamber that can be separated from a dark chamber by a sliding door. In the experiment, a rat is placed in a lit chamber for 30 sec, the door is then opened and the rat moves into the dark chamber with latency that is recorded. Upon entry into the dark chamber, the door is shut and a 0.3 mA footshock is delivered for 3 sec. Retention of the experience is determined after 48 hours by repeating the test and recording the latency. The maximum latency was arbitrarily assigned the value of 300 sec. Longer latencies are taken as a measure of improved memory.

[14] = screen for protection against chemically and electrically induced convulsions (at least two models of epilepsy); type: in vivo; conditions: mice i.p. and/or rats p.o.; MES, s.c. Met, s.c. Bic, electrical kindling
From the text: as §2, §3

[15] = cognitive impairment tests in rats (locomotor, passive and active response tests); type: in vivo, rat; conditions: at minimum dose giving full protection in MES test
From the text: A major neurological side effect observed in patients on treatment with antiepileptic agents is cognitive impairment. […] Results from the models used are taken as indicators of major constituents of human cognition.
as §1

[16] = in vivo; conditions: mouse, ip
[17] = neurotoxicity in mice (rotorod ataxia test)
Method: as §4

[18] = literature values; cited from earlier work
[19] = rat, in vivo, po; cited from earlier work
[20] = mice i.p.; literature values; cited from earlier work
[21] = background literature; cited from earlier work
[22] = median lethal dose in mice; conditions: mouse, in vivo, ip
[23] = rats, days 16-17, compound 1 200, carbamazepine 15, Na valproate 500 mg/kg
[24] = rats, days 22-23, compound 1 200, carbamazepine 15, Na valproate 500 mg/kg
[25] = rats, daily oral dosing, days 8-9, compound 1 200 mg/kg, Na Valproate 500 mg/kg, ± SEM

NC(=O)N1c2ccccc2C=Cc2ccccc21 [Carbamizepine]
Avoidance, Session I [1, 23]: 7 ± 4 | Crossings, Session I [1, 23]: 18 ± 10 | Latency, Session I [1, 23]: 27 ± 2 s | Avoidance, Session II [1, 24]: 2 ± 2 | Crossings, Session II [1, 24]: 11 ± 8 | Latency, Session II [1, 24]: 29 ± 1 s | ED50, MES model [2]: 8.5 mg/kg | ED50, s.c. MET model [3]: N.E. | ED50, s.c. MET model [4]: N.E. | ED50, electrical kindling model [5]: 28.9 mg/kg

CCCC(CCC)C(=O)NCC(N)=O [Compound 1, N-(2-n-Propylpentanoyl)glycinamide]
ED100 ([6]; po): 200 mg/kg | ED50 ([6]; po, rat p.o., read-out: ED50, MES model): 73 mg/kg | Pi (protective index, TD50/ED50), MES model ([6]; rat p.o.): > 13.7 | ED50 in MES model, times lower (more efficacious) than VPA ([6]; rat p.o., vs VPA): seven | ED50 in MES model relative to phenytoin ([6]; rat p.o., vs phenytoin): approximately twice | PI (protective index, TD50/ED50), MES model [7]: 2.4 | ED50 ([7]; Mus musculus, ip, read-out: ED50, MES model): 152 mg/kg | PI (protective index, TD50/ED50), s.c. MET model [8]: 2.9 | ED50 ([8]; Mus musculus, ip, read-out: ED50, s.c. MET model): 127 mg/kg | ED50 [9]: 162 mg/kg | protection from seizures, s.c. Bic model [10]: full protection from seizures in mice, at a dose that was approximately that of literature values for the ED50 for VPA | TD50 ([11]; in vivo, po, read-out: TD50 (median neurological toxic dose)): > 1000 mg/kg | TD50 (median neurological toxic dose) [11]: > 1000 mg/kg | Big mov. (activity score), day activity 14.00-20.00 h [12, 25]: 2402 ± 307 number of crossings | Big mov. (activity score), night activity 20.00-08.00 h [12, 25]: 7217 ± 765 number of crossings | Total mov. (activity score), day activity 14.00-20.00 h [12, 25]: 7749 ± 1188 number of crossings | Total mov. (activity score), night activity 20.00-08.00 h [12, 25]: 22568 ± 2209 number of crossings | motor activity in locomotor test ([12]; rats, vs control): no significant difference in motor activity between the control and compound 1 | passive avoidance performance (retention) ([13]; rats, day 16, compound 1 200 mg/kg, VPA 500 mg/kg, daily oral): retained their acquired knowledge to avoid the electric shock as well as the control group | active avoidance performance ([1]; rats, compared with VPA group, compound 1 200 mg/kg, VPA 500 mg/kg, daily oral): significantly better performance than the VPA treated group | Avoidance, Session I [1, 23]: 14 ± 7 | Crossings, Session I [1, 23]: 38 ± 13 | Latency, Session I [1, 23]: 21 ± 3 s | Avoidance, Session II [1, 24]: 12 ± 7 | Crossings, Session II [1, 24]: 35 ± 9 | Latency, Session II [1, 24]: 22 ± 3 s | anticonvulsant activity [14]: showed anticonvulsant activity in rodents in all of the above mentioned tests | cognitive impairment compared with VPA [15]: less cognitive impairment than VPA | LD50 [16]: > 4000 mg/kg | TD50 compared with VPA ([17]; mice i.p., vs VPA): significantly higher for compound 1 (less neurotoxic) | TD50 ([17]; mouse, in vivo, ip): 369 mg/kg

CCCC(CCC)C(=O)O [Na Valproate]
Big mov. (activity score), day activity 14.00-20.00 h ([12]; rat, in vivo): 2784 ± 352 number of crossings | Big mov. (activity score), night activity 20.00-08.00 h ([12]; rat, in vivo): 5832 ± 854 number of crossings | Total mov. (activity score), day activity 14.00-20.00 h ([12]; rat, in vivo): 8963 ± 1554 number of crossings | Total mov. (activity score), night activity 20.00-08.00 h ([12]; rat, in vivo): 18876 ± 2039 number of crossings | Avoidance, Session I ([1]; rat, in vivo): 2 ± 3 | Avoidance, Session II ([1]; rat, in vivo): 6 ± 5 | Crossings, Session I ([1]; rat, in vivo): 13 ± 2 | Crossings, Session II ([1]; rat, in vivo): 16 ± 9 | Latency, Session I ([1]; rat, in vivo): 28 ± 0.4 | Latency, Session II ([1]; rat, in vivo): 27 ± 2

O=C1NC(=O)C(c2ccccc2)(c2ccccc2)N1 [Phenytoin]
ED50, MES model [2]: 29.8 mg/kg | ED50, s.c. MET model [3]: N.E. | ED50, s.c. MET model [4]: N.E. | efficacy in s.c. Bic model [18]: not effective | TD50 (median neurological toxic dose) [19]: > 3000 mg/kg

CCCC(CCC)C(=O)O [VPA, 2-propylpentanoic acid]
ED100 ([6]; po): 500 mg/kg | passive avoidance performance (retention) ([13]; rat, in vivo): performed much worse | active avoidance performance compared with control group ([1]; rat, in vivo): worse performance | ED50, MES model [2]: 490 mg/kg | ED50, MES model [20]: 272 mg/kg | ED50, s.c. MET model [3]: 180 mg/kg | ED50, s.c. MET model [4]: 146 mg/kg | ED50, s.c. MET model ([4]; listed as Valproic acid): 149 mg/kg | ED50, electrical kindling model [5]: 117 mg/kg | adverse effects [21]: considerable adverse effects including hepatotoxicity and teratogenicity | LD50 [22]: 658 mg/kg

CCCCCNCC(N)=O [milacemide]
activity in MES model [7]: neither valproylglycine nor milacemide was active | activity in s.c. Met model [8]: neither valproylglycine nor milacemide was active

CCCC(CCC)C(=O)NCC(=O)O [valproylglycine]
activity in MES model [7]: neither valproylglycine nor milacemide was active | activity in s.c. Met model [8]: neither valproylglycine nor milacemide was active
